Experiments:
[1] = system: chromaffin granule membrane; test: ATP transport (uptake of radiolabeled ATP) in chromaffin granule membrane vesicles; assay type: biochemical, cattle; conditions: role: inhibitor; 1 mM 3H-ATP, 30° C., 1 hour, N=3 (FIG. 5); read-out: IC50 (concentration at 50% inhibition) of ATP transport
Method: Chromaffin granule membranes were prepared from adrenal glands collected from slaughtered cattle according to Reference A (Nathan Nelson et al., 1988, Chromaffin Granule Proton Pump, Methods in Enzymology, 157, 619-633). Chromaffin granule membranes prepared by sucrose density gradient centrifugation were suspended in 2 ml of SME buffer (20 mM MOPS-tris (pH 7.0), 0.3 M sucrose, 5 mM EDTA, 10 μg/ml leupeptin, and 10 μg/ml pepstatin)+25% glycerol, and the resulting suspension was aliquoted and stored at −80° C. Under these conditions, the ATP transport activity, the V-ATPase activity, and the catecholamine transport activity remain fully active for at least one year.
An ATP transport inhibition experiment for the chromaffin granule membrane was carried out according to Reference B (Yoshinori Moriyama et al., 2022, Is the vesicular nucleotide transporter a molecular target of eicosapentaenoic acid?, Frontiers in Pharmacology, 103389). About 20 μg of chromaffin granule membranes were added to 0.5 ml of measurement buffer (20 mM MOPS-tris (pH 7.0), 0.3 M sucrose, 5 mM potassium chloride, 5 mM magnesium acetate, 5 mM creatine phosphate, 10 units of creatine kinase, and 1 mM 3[H]-ATP [15 KBq/assay]), followed by incubation at 30° C. for 1 hour. Through a Millipore MCE membrane filter with a pore size […], 0.2 ml of the reaction liquid was filtered by suction. Thereafter, the filter was washed with 10 ml of 20 mM MOPS-tris (pH 7.0), 0.3 M sucrose, 5 mM potassium chloride, and 5 mM magnesium acetate, and dissolved in 10 ml of Clear-sol II (manufactured by Nacalai Tesque, Inc.). The radioactivity was then measured using a liquid scintillation counter (N=3).
The reaction was initiated by adding 50 mM ^3[H]-ATP to a final concentration of 1 mM. The 50 mM ^3[H]-ATP was prepared by mixing an ATP-tris solution (manufactured by Sigma-Aldrich) with [2,8-^3H]adenosine triphosphate tetrasodium salt (26.0 Ci/mmol) (manufactured by New England Nuclear). PEP was used as a test reagent, and pyruvic acid was used as a negative control. Five minutes before the addition of ATP, PEP or pyruvic acid, as a solution in 20 mM MOPS-tris (pH 7.0), 0.3 M sucrose, 5 mM potassium chloride, and 5 mM magnesium acetate, was added to the measurement liquid to a final PEP concentration of 0.02, 0.05, 0.1, 0.2, 0.4, or 1 mM, or to a final pyruvic acid concentration of 0.5 or 1 mM.
Chromaffin granule membrane vesicles were prepared in the same manner as in Example 5, and uptake of radiolabeled ATP into the vesicles was measured. Transport activity of catecholamine (dopamine) and ATP-dependent proton transport by V-ATPase were also measured in the same manner as in Example 5.

[2] = system: LX-2 cells; test: ATP secretion from LX-2 cells; assay type: cell-based, human; conditions: 10 μM clodronate
Method: Cells of the immortalized human hepatic stellate cell line LX-2 (manufactured by Merck) was cultured in Dulbecco's modified Eagle's medium (DMEM, 4500 mg/l Glucose, D5796, manufactured by Sigma-Aldrich) supplemented with inactivated 2% fetal bovine serum (FBS), 10 IU/ml penicillin, and 10 IU/ml streptomycin in a T25 or T75 flask at 37° C. in 5% CO2.
LX-2 cells (2×10^6 cells per well) were seeded in a collagen-coated 6-well culture dish containing Dulbecco's modified Eagle's medium (manufactured by Sigma-Aldrich) supplemented with 10 IU/ml penicillin, […] 2% fetal bovine serum, and cultured in 5% CO2 at 37° C. After 3 days, the LX-2 cells were washed twice and preincubated in Krebs-Ringer buffer (10 mM HEPES-Tris, pH 7.4, 128 mM NaCl, 1.9 mM KCl, 1.2 mM KH2PO4, 1.3 mM MgSO4, 26 mM NaHCO3, 2.4 mM CaCl2, 10 mM glucose, 0.2% (w/v) bovine serum albumin) with or without 10 μM clodronate. The LX-2 cells were then stimulated with Krebs-Ringer buffer supplemented with ionomycin (manufactured by Cayman) regardless of whether clodronate was present or not. For the stimulation, 1 mM EGTA (manufactured by Dojindo) or 10 μM serotonin (5-HT, manufactured by Sigma-Aldrich) was used. The ATP concentration in the culture supernatant was measured in the same manner as in Example 6.
For an siRNA experiment, a TriFECTa (trademark) RNAi Kit (manufactured by Integrated DNA Technologies) was used. A scramble RNA (scRNA) as a control siRNA, or a VNUT-specific siRNA, was incubated with Lipofectamine 3000 reagent (manufactured by Invitrogen) in OptiMEM reduced-serum medium (#31985070, manufactured by Gibco) at room temperature for 15 minutes, and then added directly to the cultured cells. The LX-2 cells as the transfection mixture were plated, and then cultured for 48 hours. The base sequences of VNUT siRNA forward and VNUT siRNA reverse, used for the above kit, are shown in SEQ ID NOs: 1 and 2, respectively. A positive control for an endogenous gene (#51-01-08-02) and a negative control (#51-01-14-03) were used.

[3] = system: ATP-loaded vesicles of keratinocytes; test: Accumulation of MANT-ATP in granules of keratinocytes (confocal microscopy); assay type: cell-based, human; conditions: 10 μM imeglimin, 19 hours, 0.3 mM MANT-ATP (FIG. 13)
Method: Keratinocytes were cultured in the same manner as in Example 8. Keratinocytes were cultured at 4×10^4 cells/ml in a glass-bottom dish (35 mm, manufactured by Matsunami Glass Ind., Ltd.) at 37° C. in 5% CO2 for 2 days. The culture medium was then replaced with a medium supplemented with MANT-ATP (manufactured by Invitrogen) at a final concentration of 0.3 mM, and further incubation was performed for 4.5 hours. Subsequently, imeglimin was added thereto to a final concentration of 10 μM, and further incubation was performed at 37° C. in 5% CO2 for 19 hours. Thereafter, the cells were washed twice with HBSS (manufactured by Gibco) and observed using an inverted confocal laser microscope (FV-1000 OSR, manufactured by Olympus Corporation).

[4] = system: VNUT; test: Inhibitory effect on VNUT (data not shown)
[5] = system: V-ATPase; test: Inhibitory effect on V-ATPase (data not shown)

C=C(OP(=O)(O)O)C(=O)O [PEP, phosphoenolpyruvic acid]
IC50 [1]: 25 µM

O=P(O)(O)C(Cl)(Cl)P(=O)(O)O [clodronate]
5-HT-promoted ATP secretion ([2]; 10 μM 5-HT, N=6 (FIG. 25)): strongly inhibited
ATP exocytosis ([2]; ionomycin, N=6 (FIG. 24)): inhibited

C[C@@H]1N=C(N)NC(N(C)C)=N1 [imeglimin]
accumulation of MANT-ATP in granules [3]: absent
inhibitory effect on VNUT [4]: neither imeglimin nor metformin exhibited a strong inhibitory effect
inhibitory effect on V-ATPase [5]: neither imeglimin nor metformin exhibited a strong inhibitory effect

— US20260306500A1, “METHOD OF INHIBITING ADENOSINE TRIPHOSPHATE SECRETION, METHOD OF INHIBITING HEPATIC STELLATE CELL ACTIVATION, METHOD OF DEACTIVATING HEPATIC STELLATE CELL, METHOD OF TREATING HEPATIC FIBROSIS, METHOD OF TREATING NON-ALCOHOLIC STEATOHEPATITIS, AND METHOD OF TREATING PSORIASIS” (Kurume University, priority 2023, published 2026)
